Measured values reported in patent publication US20070172436A1 (priority 2006, published 2007).

Experiments:
[1] = co-pending application Ser. No. 11/242,306; cited from earlier work
[2] = Solubilization of ascorbic acid in propylene glycol at room temperature, with or without urea; type: physicochemical; conditions: 7.0% ascorbic acid, 5.0% urea, 88.0% propylene glycol, stirring about 16 hours
Method: The solubilization process was carried out at room temperature.
The two sets of experiments (EXAMPLE 5 and EXAMPLE 6) were carried out side by side for comparison.

[3] = Solubilization of ascorbic acid in absolute ethanol at room temperature, with or without urea; conditions: 2.00% urea, 95.50% ethanol, stirring about 16 hours
Method: The solubilization process was conducted at room temperature.
The mixture was kept at room temperature, while stirring until dissolved. Vitamin E acetate was added to the mixture. Vitamin E acetate was solubilized in the mixture.

dissolution in propylene glycol [2] | dissolution in absolute ethanol [3] | SMILES | concentration of dissolved ascorbic acid in nonaqueous alcohol solvents with urea and/or urea derivatives [1]
 |  | O=C1O[C@H]([C@@H](O)CO)C(O)=C1O [ascorbic acid, L-ascorbic acid] | ≤ 28 % by weight
completely dissolved | completely dissolved | NC(N)=O [urea, Urea] | 
